Measurements: US20260176320A1, “MODULATORS OF G-PROTEIN COUPLED RECEPTORS” (priority 2018, published 2026)
Like-named read-outs stand apart in the source and are kept apart here.

Key:
Assay type in all cases: cell-based
GLP-1R [1] = target: T1, GLP-1R (Homo sapiens, UniProt P43220); assay: HitHunter cAMP assay (GLP-1R); conditions: for Emax: read-out: (Emax) GLP-1R
In short: (§1)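 Suspension cells (10,000/well) in HBSS with 10 mM HEPES, 625 μM IBMX, 0.2% BSA exposed to 22-point 2-fold agonist series in duplicate for 30 min at room temperature. cAMP measured by antibody immunocompetition with overnight development, luminescence read-out.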

GIP-R = target: T2, GIP-R (Homo sapiens, UniProt P48546); assay: HitHunter cAMP assay (GIP-R); conditions: for Emax: read-out: (Emax) GIP-R
T2 sequence (P48546 22-466): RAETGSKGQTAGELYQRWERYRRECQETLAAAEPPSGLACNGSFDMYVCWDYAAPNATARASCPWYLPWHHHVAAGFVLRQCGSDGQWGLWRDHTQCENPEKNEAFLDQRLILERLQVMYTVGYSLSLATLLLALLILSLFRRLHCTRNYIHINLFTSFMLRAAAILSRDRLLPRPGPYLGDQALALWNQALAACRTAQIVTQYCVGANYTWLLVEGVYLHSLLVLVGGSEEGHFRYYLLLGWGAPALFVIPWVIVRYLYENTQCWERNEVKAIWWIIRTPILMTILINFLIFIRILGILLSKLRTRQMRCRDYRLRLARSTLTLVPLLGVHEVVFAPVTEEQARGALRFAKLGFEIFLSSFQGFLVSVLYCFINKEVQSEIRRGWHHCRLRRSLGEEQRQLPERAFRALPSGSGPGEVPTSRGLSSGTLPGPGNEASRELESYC
In short: as §1

GLP-1R [2] = target: T1, GLP-1R; assay: PathHunter β-arrestin assay
In short: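 Cells (5,000/well) plated overnight, then exposed to a 22-point 2-fold agonist dilution series in medium with 0.2% BSA for 90 min at 37 °C, 5% CO2. PathHunter detection reagent added; after 3 h at room temperature in the dark, luminescence read.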

[3] = Table 3, cAMP, read-out: EC50 GLP-1R/nM
[4] = Table 3A, cAMP, read-out: EC50 GLP-1R/nM
[5] = Table 3, cAMP, read-out: EC50 GIP-R/nM
[6] = Table 3A, cAMP, read-out: EC50 GIP-R/nM
[7] = PathHunter β-arrestin assay, read-out: β-arrestin activity EC50

T1 sequence (P43220 24-463): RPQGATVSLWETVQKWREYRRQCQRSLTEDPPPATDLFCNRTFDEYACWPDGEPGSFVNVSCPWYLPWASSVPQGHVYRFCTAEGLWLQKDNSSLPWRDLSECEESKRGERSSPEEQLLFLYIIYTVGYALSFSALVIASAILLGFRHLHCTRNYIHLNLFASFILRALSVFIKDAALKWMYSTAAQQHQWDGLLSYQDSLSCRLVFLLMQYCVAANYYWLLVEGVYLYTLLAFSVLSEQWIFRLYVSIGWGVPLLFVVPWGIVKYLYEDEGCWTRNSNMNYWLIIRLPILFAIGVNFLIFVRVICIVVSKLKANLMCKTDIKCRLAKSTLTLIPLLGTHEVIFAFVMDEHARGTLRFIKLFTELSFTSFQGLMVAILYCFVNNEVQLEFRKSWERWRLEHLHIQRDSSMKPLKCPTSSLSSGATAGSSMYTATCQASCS

Compound	Emax (GLP-1R [1]; Table 3, cAMP)	EC50 (GLP-1R [1]; [3])	Emax (GLP-1R [1]; Table 3A, cAMP)	EC50 (GLP-1R [1]; [4])	Emax (GIP-R; Table 3, cAMP)	EC50 (GIP-R; [5])	Emax (GIP-R; Table 3A, cAMP)	EC50 (GIP-R; [6])	EC50 (GLP-1R [2]; [7])	EC50 (GLP-1R [1]; EC50 GLP-1R/nM, Table 3, cAMP)	EC50 (GLP-1R [1]; EC50 GLP-1R/nM, Table 3A, cAMP)	EC50 (GIP-R; EC50 GIP-R/nM, Table 3, cAMP)	EC50 (GIP-R; EC50 GIP-R/nM, Table 3A, cAMP)	EC50 (GLP-1R [2])	EC50 (GLP-1R [1])	Emax (GLP-1R [1])	EC50 (GLP-1R [1]; read-out: EC50 GLP-1R/nM, Table 3A, cAMP)	Emax (GIP-R)
CCCCCCCCCCCCCCCC(=O)N[C@@H](CCC(=O)NCCCC[C@H](NC(=O)[C@H](CO)NC(=O)[C@@H]1CCCN1C(=O)[C@@H]1CCCN1C(=O)[C@@H]1CCCN1C(=O)[C@H](C)NC(=O)CNC(=O)[C@H](CO)NC(=O)[C@H](CO)NC(=O)[C@@H]1CCCN1C(=O)CNC(=O)CNC(=O)[C@H](C)NC(=O)[C@H](CC(C)C)NC(=O)[C@H](CC(C)C)NC(=O)[C@H](Cc1c[nH]c2ccccc12)NC(=O)[C@H](CC(N)=O)NC(=O)[C@@H](NC(=O)[C@H](Cc1ccccc1)NC(=O)[C@H](CCC(=O)O)NC(=O)C(C)(C)NC(=O)[C@H](C)NC(=O)[C@H](C)NC(=O)[C@H](CCC(N)=O)NC(=O)[C@H](CCCCN)NC(=O)[C@H](CC(=O)O)NC(=O)[C@H](CC(C)C)NC(=O)[C@H](Cc1ccc(O)cc1)NC(=O)[C@@H](NC(=O)[C@H](CO)NC(=O)[C@H](Cc1ccc(O)cc1)NC(=O)[C@H](CC(=O)O)NC(=O)[C@H](CO)NC(=O)[C@@H](NC(=O)[C@H](Cc1ccccc1)NC(=O)[C@@H](NC(=O)CNC(=O)[C@H](CCC(=O)O)NC(=O)CCCNC(=O)CCN1CCCCC1=O)[C@@H](C)O)[C@@H](C)O)[C@@H](C)CC)C(C)C)C(N)=O)C(=O)O [Compound 15]	93%	0.1 to 1 nM	93%	0.1 to 1 nM	20%	1 to 10 nM	20%	10 to 100 nM	> 1000 nM	–	–	–	–	–	–	–	–	–
CCCCCCCCCCCCCCCC(=O)N[C@@H](CCC(=O)NCCCC[C@H](NC(=O)[C@H](CO)NC(=O)[C@@H]1CCCN1C(=O)[C@@H]1CCCN1C(=O)[C@@H]1CCCN1C(=O)[C@H](C)NC(=O)CNC(=O)[C@H](CO)NC(=O)[C@H](CO)NC(=O)[C@@H]1CCCN1C(=O)CNC(=O)CNC(=O)[C@H](C)NC(=O)[C@H](CC(C)C)NC(=O)[C@H](CC(C)C)NC(=O)[C@H](Cc1c[nH]c2ccccc12)NC(=O)[C@H](CC(N)=O)NC(=O)[C@@H](NC(=O)[C@H](Cc1ccccc1)NC(=O)[C@H](CCC(=O)O)NC(=O)C(C)(C)NC(=O)[C@H](C)NC(=O)[C@H](C)NC(=O)[C@H](CCC(N)=O)NC(=O)[C@H](CCCCN)NC(=O)[C@H](CC(=O)O)NC(=O)[C@H](CC(C)C)NC(=O)[C@H](Cc1ccc(O)cc1)NC(=O)[C@@H](NC(=O)[C@H](CO)NC(=O)[C@H](Cc1ccc(O)cc1)NC(=O)[C@H](CC(=O)O)NC(=O)[C@H](CO)NC(=O)[C@@H](NC(=O)[C@H](Cc1ccccc1)NC(=O)[C@@H](NC(=O)CNC(=O)[C@H](CCC(=O)O)NC(=O)CSCC(=O)N(C)CCN1CCCCC1=O)[C@@H](C)O)[C@@H](C)O)[C@@H](C)CC)C(C)C)C(N)=O)C(=O)O [Compound 17]	92%	–	92%	–	55%	–	55%	–	–	0.1 to 1 nM	0.1 to 1 nM	1 to 10 nM	1 to 10 nM	> 1000 nM	–	–	–	–
CCCCCCCCCCCCCCCC(=O)N[C@@H](CCC(=O)NCCCC[C@H](NC(=O)[C@H](CO)NC(=O)[C@@H]1CCCN1C(=O)[C@@H]1CCCN1C(=O)[C@@H]1CCCN1C(=O)[C@H](C)NC(=O)CNC(=O)[C@H](CO)NC(=O)[C@H](CO)NC(=O)[C@@H]1CCCN1C(=O)CNC(=O)CNC(=O)[C@H](C)NC(=O)[C@H](CC(C)C)NC(=O)[C@H](CC(C)C)NC(=O)[C@H](Cc1c[nH]c2ccccc12)NC(=O)[C@H](CC(N)=O)NC(=O)[C@@H](NC(=O)[C@H](Cc1ccccc1)NC(=O)[C@H](CCC(=O)O)NC(=O)C(C)(C)NC(=O)[C@H](C)NC(=O)[C@H](C)NC(=O)[C@H](CCC(N)=O)NC(=O)[C@H](CCCCN)NC(=O)[C@H](CC(=O)O)NC(=O)[C@H](CC(C)C)NC(=O)[C@H](Cc1ccc(O)cc1)NC(=O)[C@@H](NC(=O)[C@H](CO)NC(=O)[C@H](Cc1ccc(O)cc1)NC(=O)[C@H](CC(=O)O)NC(=O)[C@H](CO)NC(=O)[C@@H](NC(=O)[C@H](Cc1ccccc1)NC(=O)[C@@H](NC(=O)CNC(=O)[C@H](CCC(=O)O)NC(=O)C(C)(C)C(=O)NCCN1CCCCC1=O)[C@@H](C)O)[C@@H](C)O)[C@@H](C)CC)C(C)C)C(N)=O)C(=O)O [Compound 19]	93%	< 0.1 nM	93%	< 0.1 nM	50%	0.1 to 1 nM	50%	0.1 to 1 nM	< 10 nM	–	–	–	–	–	–	–	–	–
CCCCCCCCCCCCCCCC(=O)N[C@@H](CCC(=O)NCCCC[C@H](NC(=O)[C@H](CO)NC(=O)[C@@H]1CCCN1C(=O)[C@@H]1CCCN1C(=O)[C@@H]1CCCN1C(=O)[C@H](C)NC(=O)CNC(=O)[C@H](CO)NC(=O)[C@H](CO)NC(=O)[C@@H]1CCCN1C(=O)CNC(=O)CNC(=O)[C@H](C)NC(=O)[C@H](CC(C)C)NC(=O)[C@H](CC(C)C)NC(=O)[C@H](Cc1c[nH]c2ccccc12)NC(=O)[C@H](CC(N)=O)NC(=O)[C@@H](NC(=O)[C@H](Cc1ccccc1)NC(=O)[C@H](CCC(=O)O)NC(=O)C(C)(C)NC(=O)[C@H](C)NC(=O)[C@H](C)NC(=O)[C@H](CCC(N)=O)NC(=O)[C@H](CCCCN)NC(=O)[C@H](CC(=O)O)NC(=O)[C@H](CC(C)C)NC(=O)[C@H](Cc1ccc(O)cc1)NC(=O)[C@@H](NC(=O)[C@H](CO)NC(=O)[C@H](Cc1ccc(O)cc1)NC(=O)[C@H](CC(=O)O)NC(=O)[C@H](CO)NC(=O)[C@@H](NC(=O)[C@H](Cc1ccccc1)NC(=O)[C@@H](NC(=O)CNC(=O)[C@H](CCC(=O)O)NC(=O)CCCCC(=O)NCCN1CCCCC1=O)[C@@H](C)O)[C@@H](C)O)[C@@H](C)CC)C(C)C)C(N)=O)C(=O)O [Compound 20]	–	–	–	–	–	–	–	–	–	–	–	1 to 10 nM	10 to 100 nM	> 1000 nM	0.1 to 1 nM	91%	0.1 to 1 nM	22%
CCCCCCCCCCCCCCCC(=O)N[C@@H](CCC(=O)NCCCC[C@H](NC(=O)[C@H](CO)NC(=O)[C@@H]1CCCN1C(=O)[C@@H]1CCCN1C(=O)[C@@H]1CCCN1C(=O)[C@H](C)NC(=O)CNC(=O)[C@H](CO)NC(=O)[C@H](CO)NC(=O)[C@@H]1CCCN1C(=O)CNC(=O)CNC(=O)[C@H](C)NC(=O)[C@H](CC(C)C)NC(=O)[C@H](CC(C)C)NC(=O)[C@H](Cc1c[nH]c2ccccc12)NC(=O)[C@H](CC(N)=O)NC(=O)[C@@H](NC(=O)[C@H](Cc1ccccc1)NC(=O)[C@H](CCC(=O)O)NC(=O)C(C)(C)NC(=O)[C@H](C)NC(=O)[C@H](C)NC(=O)[C@H](CCC(N)=O)NC(=O)[C@H](CCCCN)NC(=O)[C@H](CC(=O)O)NC(=O)[C@H](CC(C)C)NC(=O)[C@H](Cc1ccc(O)cc1)NC(=O)[C@@H](NC(=O)[C@H](CO)NC(=O)[C@H](Cc1ccc(O)cc1)NC(=O)[C@H](CC(=O)O)NC(=O)[C@H](CO)NC(=O)[C@@H](NC(=O)[C@H](Cc1ccccc1)NC(=O)[C@@H](NC(=O)CNC(=O)[C@H](CCC(=O)O)NC(=O)CSCC(=O)NCCN1CCC[C@H](O)C1=O)[C@@H](C)O)[C@@H](C)O)[C@@H](C)CC)C(C)C)C(N)=O)C(=O)O [Compound 21]	95%	–	95%	–	20%	–	20%	–	–	< 0.1 nM	< 0.1 nM	1 to 10 nM	10 to 100 nM	> 1000 nM	–	–	–	–
